Experimental data taken from patent US11421218B2, “Methods for enhancing the efficiency of gene editing” (Dana-Farber Cancer Institute, Inc., priority 2016, dated 2022).
Entries after “also recorded” stand apart in the source; their conditions may differ.

Key:
[1] = system: LT-HSCs; assay: pIpC stress in mice, comet assay on LT-HSCs; conditions: wild-type or Fancd2-deficient mice, pretreated in vivo
Source text: (§1) FIG. 6A is a schematic showing that wild-type or Fancd2-deficient mice were exposed to the physiologic stress, pIpC. Mice were pretreated in vivo with either no Tgfβ inhibitor, the neutralizing antibody to Tgfβ 1, 2, 3, or the Tgfβ receptor kinase inhibitor, Galunisertib. Long-term HSCs (LT-HSCs) were isolated and subjected to functional tests.

[2] = system: gamma H2AX foci; assay: pIpC stress in mice, gamma H2AX foci; conditions: wild-type or Fancd2-deficient mice, pretreated in vivo
Source text: as §1

[3] = system: TGFβ signaling; assay: Physiological stress (pIpC)-induced bone marrow failure in mice; conditions: pretreated in vivo
Source text: as §1

[4] = system: U2OS cells with DR-GFP reporter; assay: Homologous recombination assay, U2OS cells with DR-GFP reporter; assay type: cell-based; conditions: 10 μM
Procedure: Homologous recombination assay was measured in U2OS cells with DR-GFP reporter after treatment with 10 μM RI-1 and 10 μM B02. The representative of two independent experiments is presented.
HR assay was measured in U2OS cells with DR-GFP reporter after transduction with lentivirus encoding indicated shRNAs. The representative of three independent experiments is presented.

[5] = system: RAD51 foci; assay: RAD51 foci formation by immunofluorescence in MMC-treated GM6914 cells; assay type: cell-based; conditions: GM6914 (FA-A) or GM6914+FANCA cells, 1 μM MMC, 10 μM inhibitors, 6 h
Procedure: GM6914 (FA-A) cells or corrected GM6914+FANCA cells were treated with 1 μMMMC and 10 μM inhibitors for 6 h before immunofluorescence analysis. Representative images (FIG. 3E) and quantification (FIG. 3F) of RAD51 foci are shown, (Scale bar: 50 μm).

[6] = system: HSPCs; assay: HSPC survival with RAD51 inhibitors (cytotoxicity); assay type: cell-based; conditions: HSPCs from WT or Fancd2−/− mice, 10 μM, in vitro five days
Procedure: HSPCs from WT or Fancd2−/− mice were treated with B02 (10 μM) or RI-1 (10 μM) in vitro for five days and survival was determined.

[7] = system: GM6914 cells (FA-A cells); assay: Traffic light reporter assay of HR and NHEJ repair events; assay type: cell-based; conditions: GM6914 cells exposed to SD-208 for 72 hrs
Source text: FIGS. 4A-4B are graphs showing that TGF-β pathway inhibition affects the choice of HR versus NHEJ pathways in repairing individual DNA breakpoints in FA cells. GM6914 cells (FA-A cells) or FANCA corrected GM6914 cells with shControl or shSMAD3 were used to generate traffic light reporter system, and then were infected with GFP-donor template and I-SceI lentivirus to generate DNA breakpoints. Quantification analysis of HR and NHEJ repair events is shown. (FIG. 4B) The ratio of HR to NHEJ activity based on the data in (FIG. 4A).
Quantification of HR and NHEJ repair events in GM6914 cells exposed to SD-208 for 72 hrs as detected by traffic light reporter assay described in FIG. 4A.
FIG. 5A is a schematic of traffic light reporter assay. Endonuclease 1-SceI induces double strand break (DSB) in the restriction site. […]
FIG. 5B is a graph showing HR and NHEJ repair analyzed by traffic light reporter (TLR) system. […] HR and NHEJ repair events (GFP or mCherry positive cells) were quantified by flow cytometry.
To directly confirm that inhibition of TGF-β pathway modulates HR or NHEJ activity, we engineered an individual DNA breakpoint in FA (GM6914) cells and employed the traffic light reporter […] system which quantifies both HR and NHEJ activities (Certo et al., 2011). […]

SMILES | HR efficiency [4] | RAD51 foci formation [5] | cytotoxicity in HSPCs (survival) [6] | other results
Cc1cccc(-c2nn3c(c2-c2ccnc4ccc(C(N)=O)cc24)CCC3)n1 [Galunisertib, 4-[2-(6-methylpyridin-2-yl)-5,6-dihydro-4H-pyrrolo[1,2-b]pyrazol-3-yl]quinoline-6-carboxamide] | – | – | – | pIpC-induced DNA damage in LT-HSCs, comet assay [1]: rescued the pIpC-induced DNA damage; pIpC-induced DNA damage, gamma H2AX foci [2]: rescued the pIpC-induced DNA damage; physiological stress-induced bone marrow failure [3]: rescues physiological stress-induced bone marrow failure in mice
O=c1c2ccccc2nc(/C=C/c2cccnc2)n1Cc1ccccc1 [B02] | significantly decrease HR efficiency | efficiently block RAD51 foci formation | do not show cytotoxicity in HSPCs | –
Fc1ccc(Cl)cc1-c1nc(Nc2ccncc2)c2nccnc2n1 [SD208, 2-(5-Chloro-2-fluorophenyl)-4-[(4-pyridyl)amino]pteridine] | – | – | – | HR repair events [7]: increased HR activity in FA cells; also recorded: increases FIR events; NHEJ repair events [7]: decreases NHEJ events
O=C1C(Cl)=C(N2CCOCC2)C(=O)N1c1ccc(Cl)c(Cl)c1 [RI-1] | significantly decrease HR efficiency | efficiently block RAD51 foci formation | do not show cytotoxicity in HSPCs | –
